± gives the standard deviation of the averaged measurements.
Experiments:
Assay in all cases: level (log10 ratio to DMSO vehicle control); higher = higher biomarker level / cell amount than vehicle control
Details in all cases: in DMSO
[1] = compound: O=C(O)C(F)(F)C(F)(F)C(F)(F)C(F)(F)C(F)(F)C(F)(F)C(F)(F)C(F)(F)C(F)(F)C(F)F [11-H-Perfluoroundecanoic acid]
Procedure: (§1)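 BioMAP Diversity Plus panel of 12 human primary cell co-culture systems (3C, 4H, LPS, SAg, BT, BF4T, BE3C, CASM3C, HDF3CGF, KF3CT, MyoF, Mphg). Compounds were added 1 h before stimulation and left for 24 h (MyoF 48 h; BT 72 h for soluble read-outs or 6 d for IgG). Biomarkers were read by ELISA, cytotoxicity by SRB, PBMC viability and proliferation by Alamar Blue. Each well value was divided by the mean of 8 DMSO control wells on the same plate and log10 transformed; duplicate blinded samples were tested at 4 concentrations.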

[2] = compound: NC(=O)C(F)(F)C(F)(F)C(F)(F)C(F)F
Procedure: as §1

[3] = compound: FC(F)(F)C(F)(F)C(F)(F)C(F)(F)C(F)(F)C(F)(F)C(F)(F)I [1-Iodopentadecafluoroheptane]
Procedure: as §1

[4] = compound: O=S(=O)(F)C(F)(F)C(F)(F)C(F)(F)C(F)(F)C(F)(F)C(F)(F)C(F)(F)C(F)(F)F [Perfluorooctanesulfonyl fluoride]
Procedure: as §1

[5] = compound: NS(=O)(=O)C(F)(F)C(F)(F)C(F)(F)C(F)(F)C(F)(F)C(F)(F)F [Perfluorohexanesulfonamide]
Procedure: as §1

[6] = compound: NC(=O)C(F)(F)C(F)(F)C(F)(F)C(F)(F)C(N)=O [Octafluoroadipamide]
Procedure: as §1

Row | Test System | level (log10) ([1]; 6700 nM) | level (log10) ([1]; 20000 nM) | level (log10) ([2]; 6700 nM) | level (log10) ([2]; 20000 nM) | level (log10) ([2]; 60000 nM) | level (log10) ([3]; 6700 nM) | level (log10) ([3]; 20000 nM) | level (log10) ([4]; 6700 nM) | level (log10) ([4]; 20000 nM) | level (log10) ([4]; 60000 nM) | level (log10) ([5]; 6700 nM) | level (log10) ([5]; 20000 nM) | level (log10) ([5]; 60000 nM) | level (log10) ([6]; 6700 nM) | level (log10) ([6]; 20000 nM) | level (log10) ([6]; 60000 nM)
1 | LPS:CD69 | -0.024 | -0.057 | 0.006 ± 0.027 | 0.021 ± 0.035 | 0.0225 ± 0.061 | -0.0105 ± 0.033 | 0.037 ± 0.0057 | -0.019 ± 0.031 | -0.0135 ± 0.0092 | -0.0335 ± 0.011 | -0.009 ± 0.013 | -0.061 ± 0.016 | -0.169 ± 0.005 | 0.011 ± 0.1 | 0.033 ± 0.052 | 0.082 ± 0.024
2 | BE3C:CXCL10/IP-10 | -0.141 ± 0.012 | -0.874 ± 0.014 | 0.0025 ± 0.0064 | -0.0015 ± 0.016 | 0.007 ± 0.013 | 0.01 ± 0.02 | 0.0195 ± 0.035 | 0.0095 ± 0.035 | 0.0115 ± 0.025 | 0.008 ± 0.03 | -0.016 ± 0.04 | -0.086 ± 0.042 | -0.235 ± 0.047 | -0.0275 ± 0.047 | -0.031 ± 0.03 | -0.0185 ± 0.056
3 | BF4T:CXCL8/IL-8 | 0.0575 ± 0.019 | 0.0005 ± 0.026 | 0 ± 0.0071 | -0.0105 ± 0.005 | -0.009 ± 0.0071 | 0.0515 ± 0.079 | 0.0425 ± 0.044 | 0.0175 ± 0.011 | 0.015 ± 0.0028 | 0.0355 ± 0.005 | -0.031 ± 0.052 | -0.051 ± 0.034 | -0.073 ± 0.02 | -0.0185 ± 0.0064 | -0.022 ± 0.011 | -0.003 ± 0.044
4 | BE3C:IL-1alpha | 0.0285 ± 0.016 | -0.42 ± 0.011 | 0.0235 ± 0.016 | -0.008 ± 0.0085 | 0.015 ± 0.065 | -0.0175 ± 0.005 | -0.0185 ± 0.0021 | 0.004 ± 0.0042 | -0.0115 ± 0.013 | -0.007 ± 0.016 | -0.0195 ± 0.00071 | -0.022 ± 0.013 | -0.0885 ± 0.016 | 0.0085 ± 0.012 | -0.0105 ± 0.0064 | 0.0145 ± 0.033
5 | BT:B cell Proliferation | 0.023 ± 0.016 | 0.035 ± 0.031 | 0.0115 ± 0.0092 | -0.001 | 0.0215 ± 0.0092 | -0.0045 ± 0.005 | 0.019 ± 0.0071 | -0.0145 ± 0.016 | -0.011 ± 0.013 | 0.008 ± 0.021 | 0.0025 ± 0.063 | 0.034 ± 0.047 | 0.086 ± 0.0042 | -0.008 ± 0.025 | 0.018 ± 0.013 | 0.016 ± 0.025
6 | BF4T:PAI-I | -0.0455 ± 0.025 | -0.146 ± 0.034 | -0.0005 ± 0.019 | -0.0095 ± 0.021 | 0.004 ± 0.0085 | -0.004 ± 0.0085 | -0.0235 ± 0.0092 | 0.004 ± 0.0014 | -0.0005 ± 0.0035 | 0.02 ± 0.0085 | 0.002 ± 0.0099 | 0.003 ± 0.0057 | -0.0115 ± 0.005 | -0.0005 ± 0.0035 | -0.0035 ± 0.00071 | 0.015 ± 0.023
7 | LPS:CD106/VCAM-1 | 0.0025 ± 0.019 | -0.002 ± 0.02 | -0.0055 ± 0.025 | -0.023 ± 0.041 | -0.015 ± 0.025 | 0.0045 ± 0.016 | -0.005 ± 0.0071 | 0.0025 ± 0.011 | -0.0125 ± 0.00071 | 0.007 ± 0.0085 | -0.029 ± 0.047 | -0.0315 ± 0.049 | -0.097 ± 0.016 | -0.022 ± 0.047 | -0.0065 ± 0.0092 | 0.008 ± 0.021
8 | BE3C:CD87/uPAR | 0.0235 ± 0.026 | -0.264 ± 0.019 | -0.02 ± 0.011 | -0.0205 ± 0.0035 | -0.0145 ± 0.015 | 0.001 ± 0.034 | 0.008 ± 0.011 | -0.0005 ± 0.011 | 0.0155 ± 0.00071 | 0.0375 ± 0.0064 | 0.0005 ± 0.0035 | -0.0055 ± 0.018 | -0.13 ± 0.018 | -0.0295 ± 0.043 | -0.044 ± 0.071 | -0.0195 ± 0.093
9 | LPS:SRB | 0.0045 ± 0.013 | 0.0055 ± 0.005 | -0.011 ± 0.0071 | -0.006 ± 0.0042 | -0.0105 ± 0.00071 | 0.0035 ± 0.0064 | 0.003 ± 0.0042 | -0.008 ± 0.0071 | -0.0025 ± 0.0064 | -0.002 ± 0.013 | -0.012 ± 0.0071 | -0.017 ± 0.0057 | -0.0975 ± 0.029 | -0.003 ± 0.011 | -0.0075 ± 0.0092 | 0.0015 ± 0.0035
10 | SAg:CXCL9/MIG | -0.005 ± 0.011 | -0.011 | -0.0015 ± 0.0021 | -0.0055 ± 0.005 | 0.0105 ± 0.0021 | 0.006 ± 0.0071 | 0.02 ± 0.0042 | -0.005 ± 0.0014 | -0.0015 ± 0.0078 | 0.002 ± 0.018 | -0.0135 ± 0.018 | -0.004 ± 0.0071 | 0.0105 ± 0.0064 | 0 | -0.0045 ± 0.0064 | -0.0005 ± 0.013
11 | BF4T:MMP-9 | -0.042 ± 0.047 | -0.154 ± 0.021 | 0.013 ± 0.051 | -0.006 ± 0.055 | -0.001 ± 0.047 | -0.0345 ± 0.063 | -0.019 ± 0.013 | 0.007 ± 0.02 | -0.007 ± 0.0099 | 0.015 ± 0.0028 | 0.0205 ± 0.021 | 0.011 ± 0.0085 | -0.003 ± 0.0085 | -0.0245 ± 0.005 | -0.016 ± 0.016 | 0.0115 ± 0.046
12 | LPS:IL-1alpha | -0.022 ± 0.011 | 0.004 ± 0.031 | 0.009 ± 0.011 | -0.0045 ± 0.015 | 0.0015 ± 0.06 | -0.0655 ± 0.03 | -0.0495 ± 0.047 | 0.0065 ± 0.015 | 0.024 ± 0.016 | 0.0105 ± 0.012 | -0.0075 ± 0.053 | 0.032 ± 0.013 | 0.0185 ± 0.0078 | 0.0005 ± 0.012 | 0.02 ± 0.017 | -0.0045 ± 0.00071
13 | LPS:CD40 | -0.0115 ± 0.015 | -0.0505 ± 0.03 | -0.0125 ± 0.029 | -0.0045 ± 0.018 | -0.03 ± 0.017 | 0.0645 ± 0.11 | -0.006 ± 0.15 | 0.031 ± 0.12 | 0.0455 ± 0.094 | 0.033 ± 0.1 | 0.005 ± 0.068 | -0.045 ± 0.09 | -0.191 ± 0.04 | -0.044 ± 0.016 | -0.022 ± 0.035 | 0 ± 0.0028
14 | LPS:CD62E/E-Selectin | 0.0035 ± 0.019 | 0.0095 ± 0.025 | -0.0115 ± 0.022 | -0.023 ± 0.0014 | -0.016 ± 0.016 | -0.0155 ± 0.005 | -0.002 ± 0.0071 | 0.008 ± 0.0028 | 0.0015 ± 0.0064 | -0.002 ± 0.011 | -0.002 ± 0.0099 | -0.0295 ± 0.012 | -0.0815 ± 0.011 | -0.007 ± 0.02 | -0.0035 ± 0.016 | 0.022 ± 0.0028
15 | SAg:CD69 | -0.01 ± 0.028 | -0.0235 ± 0.047 | 0.025 ± 0.0085 | 0.0175 ± 0.005 | 0.0495 ± 0.026 | -0.028 ± 0.0071 | -0.039 ± 0.0014 | -0.0215 ± 0.0064 | -0.0105 ± 0.0064 | -0.0195 ± 0.0035 | -0.028 ± 0.017 | -0.0725 ± 0.019 | -0.217 ± 0.02 | -0.0095 ± 0.011 | -0.013 ± 0.018 | 0.002 ± 0.013
16 | SAg:SRB | 0.0155 ± 0.005 | 0.0035 ± 0.011 | -0.0225 ± 0.0035 | -0.02 ± 0.0028 | -0.015 ± 0.021 | -0.007 ± 0.0042 | 0.0025 ± 0.0021 | 0.0055 ± 0.0064 | 0.0005 ± 0.0021 | 0.0015 ± 0.0035 | -0.003 ± 0.0028 | -0.001 ± 0.0028 | -0.094 ± 0.021 | -0.011 ± 0.014 | -0.0065 ± 0.022 | -0.0025 ± 0.0064
17 | BF4T:IL-1alpha | 0.025 ± 0.027 | -0.0955 ± 0.026 | -0.0175 ± 0.021 | -0.004 ± 0.0028 | -0.002 ± 0.0057 | -0.0035 ± 0.0035 | 0.003 ± 0.0014 | -0.0005 ± 0.0064 | -0.0015 ± 0.00071 | 0.0155 ± 0.021 | -0.006 ± 0.0042 | -0.008 ± 0.017 | -0.0675 ± 0.016 | 0.007 ± 0.0071 | -0.005 ± 0.0071 | 0.0215 ± 0.018
18 | BE3C:EGFR | -0.0125 ± 0.021 | -0.12 ± 0.0057 | 0.0055 ± 0.019 | 0.0065 ± 0.032 | -0.008 ± 0.0099 | 0.014 ± 0.0071 | 0.0185 ± 0.026 | 0.0125 ± 0.0064 | 0.017 ± 0.025 | -0.0095 ± 0.012 | 0.023 ± 0.0057 | 0.0205 ± 0.033 | 0.014 ± 0.017 | -0.019 ± 0.016 | -0.014 ± 0.0099 | 0.004 ± 0.04
